Measured values as given in ChEMBL document CHEMBL3885881, “DrugMatrix”.

Organism: Rattus norvegicus
Experiment: DrugMatrix - Regimen: Daily Repeat
Format: toxicity, organism-based, Sprague-Dawley
Design: regimen Daily Repeat, gender Male, age 6-8 weeks
Details: in vivo, iv, 50 mg/kg, dose level Low, vehicle 100 % SALINE; for ABSOLUTE BASOPHIL / ABSOLUTE EOSINOPHIL / ABSOLUTE LYMPHOCYTE / ABSOLUTE MONOCYTE / ABSOLUTE SEGMENTED NEUTROPHIL / BASOPHIL / EOSINOPHIL / ERYTHROCYTE COUNT / HEMATOCRIT / HEMOGLOBIN / LEUKOCYTE COUNT / LYMPHOCYTE / MEAN CORPUSCULAR HEMOGLOBIN / MEAN CORPUSCULAR HEMOGLOBIN CONCENTRATION / MEAN CORPUSCULAR VOLUME / MONOCYTE / NEUTROPHIL / NUCLEATED RED BLOOD CELLS / PLATELET COUNT: tissue Blood; for ALANINE AMINOTRANSFERASE / ALBUMIN / ALKALINE PHOSPHATASE / ASPARTATE AMINOTRANSFERASE / BLOOD UREA NITROGEN / CARBON DIOXIDE / CHLORIDE / CHOLESTEROL / CREATINE PHOSPHOKINASE / CREATININE / GLUCOSE / LACTATE DEHYDROGENASE / LIPASE / PHOSPHORUS / POTASSIUM / SODIUM / TOTAL BILIRUBIN / TOTAL PROTEIN / URIC ACID: tissue Plasma

SMILES: CC1(C)S[C@@H]2[C@H](NC(=O)Cc3ccccc3)C(=O)N2[C@H]1C(=O)O [PENICILLIN G]
- ABSOLUTE BASOPHIL (72 h, time 3 day): 0 CELLS/uL
- ABSOLUTE EOSINOPHIL (72 h, time 3 day): 74.67 CELLS/uL
- ABSOLUTE LYMPHOCYTE (72 h, time 3 day): 13141.67 CELLS/uL
- ABSOLUTE MONOCYTE (72 h, time 3 day): 398.33 CELLS/uL
- ABSOLUTE SEGMENTED NEUTROPHIL (72 h, time 3 day): 1318.67 CELLS/uL
- BASOPHIL (72 h, time 3 day): 0%
- EOSINOPHIL (72 h, time 3 day): 0.67%
- ERYTHROCYTE COUNT (72 h, time 3 day): 5.85 x10E6/uL
- HEMATOCRIT (72 h, time 3 day): 37.47%
- HEMOGLOBIN (72 h, time 3 day): 13.8 G/DL
- LEUKOCYTE COUNT (72 h, time 3 day): 14.93 x10E3/uL
- LYMPHOCYTE (72 h, time 3 day): 87.67%
- MEAN CORPUSCULAR HEMOGLOBIN (72 h, time 3 day): 23.6 pg
- MEAN CORPUSCULAR HEMOGLOBIN CONCENTRATION (72 h, time 3 day): 36.87 G/DL
- MEAN CORPUSCULAR VOLUME (72 h, time 3 day): 64.07 fL
- MONOCYTE (72 h, time 3 day): 2.67%
- NEUTROPHIL (72 h, time 3 day): 9%
- NUCLEATED RED BLOOD CELLS (72 h, time 3 day): 0 /100WBC
- PLATELET COUNT (72 h, time 3 day): 1362 x10E3/uL
- ALANINE AMINOTRANSFERASE (72 h, time 3 day): 56.33 u/L
- ALBUMIN (72 h, time 3 day): 4.37 G/DL
- ALKALINE PHOSPHATASE (72 h, time 3 day): 354 u/L
- ASPARTATE AMINOTRANSFERASE (72 h, time 3 day): 76.67 u/L
- BLOOD UREA NITROGEN (72 h, time 3 day): 13.33 mg/dL
- CARBON DIOXIDE (72 h, time 3 day): 24.33 mmol/L
- CHLORIDE (72 h, time 3 day): 103.67 MEQ/L
- CHOLESTEROL (72 h, time 3 day): 82.67 mg/dL
- CREATINE PHOSPHOKINASE (72 h, time 3 day): 122 u/L
- CREATININE (72 h, time 3 day): 0.21 mg/dL
- GLUCOSE (72 h, time 3 day): 172 mg/dL
- LACTATE DEHYDROGENASE (72 h, time 3 day): 124 u/L
- LIPASE (72 h, time 3 day): 10 u/L
- PHOSPHORUS (72 h, time 3 day): 12.63 mg/dL
- POTASSIUM (72 h, time 3 day): 6.23 MEQ/L
- SODIUM (72 h, time 3 day): 146.33 MEQ/L
- TOTAL BILIRUBIN (72 h, time 3 day): 0.23 mg/dL
- TOTAL PROTEIN (72 h, time 3 day): 6.07 G/DL
- URIC ACID (72 h, time 3 day): 1.57 mg/dL
- ABSOLUTE BASOPHIL (120 h, time 5 day): 0 CELLS/uL
- ABSOLUTE EOSINOPHIL (120 h, time 5 day): 0 CELLS/uL
- ABSOLUTE LYMPHOCYTE (120 h, time 5 day): 11488.33 CELLS/uL
- ABSOLUTE MONOCYTE (120 h, time 5 day): 166 CELLS/uL
- ABSOLUTE SEGMENTED NEUTROPHIL (120 h, time 5 day): 512.33 CELLS/uL
- BASOPHIL (120 h, time 5 day): 0%
- EOSINOPHIL (120 h, time 5 day): 0%
- ERYTHROCYTE COUNT (120 h, time 5 day): 5.58 x10E6/uL
- HEMATOCRIT (120 h, time 5 day): 36.13%
- HEMOGLOBIN (120 h, time 5 day): 13.43 G/DL
- LEUKOCYTE COUNT (120 h, time 5 day): 12.17 x10E3/uL
- LYMPHOCYTE (120 h, time 5 day): 94.33%
- MEAN CORPUSCULAR HEMOGLOBIN (120 h, time 5 day): 24.07 pg
- MEAN CORPUSCULAR HEMOGLOBIN CONCENTRATION (120 h, time 5 day): 37.17 G/DL
- MEAN CORPUSCULAR VOLUME (120 h, time 5 day): 64.8 fL
- MONOCYTE (120 h, time 5 day): 1.33%
- NEUTROPHIL (120 h, time 5 day): 4.33%
- NUCLEATED RED BLOOD CELLS (120 h, time 5 day): 0 /100WBC
- PLATELET COUNT (120 h, time 5 day): 1442 x10E3/uL
- ALANINE AMINOTRANSFERASE (120 h, time 5 day): 49.33 u/L
- ALBUMIN (120 h, time 5 day): 4.27 G/DL
- ALKALINE PHOSPHATASE (120 h, time 5 day): 371 u/L
- ASPARTATE AMINOTRANSFERASE (120 h, time 5 day): 81.33 u/L
- BLOOD UREA NITROGEN (120 h, time 5 day): 15.33 mg/dL
- CARBON DIOXIDE (120 h, time 5 day): 21.67 mmol/L
- CHLORIDE (120 h, time 5 day): 107 MEQ/L
- CHOLESTEROL (120 h, time 5 day): 79.33 mg/dL
- CREATINE PHOSPHOKINASE (120 h, time 5 day): 245.67 u/L
- CREATININE (120 h, time 5 day): 0.42 mg/dL
- GLUCOSE (120 h, time 5 day): 151.67 mg/dL
- LACTATE DEHYDROGENASE (120 h, time 5 day): 117.67 u/L
- LIPASE (120 h, time 5 day): 11.5 u/L
- PHOSPHORUS (120 h, time 5 day): 12.33 mg/dL
- POTASSIUM (120 h, time 5 day): 6.79 MEQ/L
- SODIUM (120 h, time 5 day): 144.2 MEQ/L
- TOTAL BILIRUBIN (120 h, time 5 day): 0.23 mg/dL
- TOTAL PROTEIN (120 h, time 5 day): 6.07 G/DL
- URIC ACID (120 h, time 5 day): 2 mg/dL
